Measured values reported in patent publication US20240158446A1, “CYCLIC COMPOUND HAVING SELECTIVE INHIBITORY ACTION ON KRAS OVER HRAS AND NRAS” (CHUGAI SEIYAKU KABUSHIKI KAISHA, priority 2021, published 2024).
Where two headings read alike, the source gives them in different places. Where a SMILES comes first, the peptide text is derived from it. Bridges are numbered along the chain shown (N, C = ends). [ ]: non-standard residue; d: D form. The star is where a group is joined. hPhe(3-Cl-4-CF3) = N[C@@H](CCc1ccc(C(F)(F)F)c(Cl)c1)C(=O)O; NPrPhe(4-CF3) = CCCN[C@@H](Cc1ccc(C(F)(F)F)cc1)C(=O)O; NMeGly(cPent) = CN[C@H](C(=O)O)C1CCCC1; NMeD = CN[C@@H](CC(=O)O)C(=O)O; NMeL = CN[C@@H](CC(C)C)C(=O)O; Morpholide = C1CN(*)CCO1; Ac5c = NC1(C(=O)O)CCCC1; Abu = CC[C@H](N)C(=O)O; Sar = CNCC(=O)O

Experiments:
[1] = biological target: GDP-bound KRAS wild-type protein (Homo sapiens, UniProt P01116); assay: Binding to KRAS by surface plasmon resonance (SPR), Single Cycle Kinetics; conditions: GDP-bound KRAS wild-type protein, read-out: KRAS KD
GDP-bound KRAS wild-type protein, sequence (P01116 whole entry): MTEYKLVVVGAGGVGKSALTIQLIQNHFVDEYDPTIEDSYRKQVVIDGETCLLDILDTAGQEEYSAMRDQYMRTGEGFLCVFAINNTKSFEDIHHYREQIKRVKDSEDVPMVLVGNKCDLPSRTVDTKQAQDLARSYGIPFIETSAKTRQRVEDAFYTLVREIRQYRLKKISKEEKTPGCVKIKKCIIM

[2] = biological target: GDP-bound NRAS wild-type protein (Homo sapiens, UniProt P01111); assay: Binding to NRAS by surface plasmon resonance (SPR), Single Cycle Kinetics; conditions: SPR, GDP-bound NRAS wild-type protein vs GDP-bound KRAS wild-type protein
GDP-bound NRAS wild-type protein, sequence (P01111 whole entry): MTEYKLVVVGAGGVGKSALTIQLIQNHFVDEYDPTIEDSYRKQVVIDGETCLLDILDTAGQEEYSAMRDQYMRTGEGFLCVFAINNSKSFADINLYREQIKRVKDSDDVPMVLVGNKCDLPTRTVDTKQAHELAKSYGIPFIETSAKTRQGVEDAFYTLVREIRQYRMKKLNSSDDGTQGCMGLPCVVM

[3] = biological target: GDP-bound HRAS wild-type protein (Homo sapiens, UniProt P01112); assay: Binding to HRAS by surface plasmon resonance (SPR), Single Cycle Kinetics; conditions: SPR, GDP-bound HRAS wild-type protein vs GDP-bound KRAS wild-type protein
GDP-bound HRAS wild-type protein, sequence (P01112 whole entry): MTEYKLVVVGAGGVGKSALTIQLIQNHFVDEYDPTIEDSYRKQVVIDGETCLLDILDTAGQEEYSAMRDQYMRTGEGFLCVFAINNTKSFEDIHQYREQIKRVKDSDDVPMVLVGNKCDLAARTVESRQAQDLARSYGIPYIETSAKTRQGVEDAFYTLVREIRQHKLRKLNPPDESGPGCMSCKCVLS

[4] = SPR Single Cycle Kinetics, 1:1 binding model

Kd [1, 4] [nM] | Kd ([1]; SPR, Single Cycle Kinetics) [nM] | Compound | NRAS/KRAS (ratio of KD value with respect to NRAS to KD value with respect to KRAS) [2] | HRAS/KRAS (ratio of KD value with respect to HRAS to KD value with respect to KRAS) [3] | NRAS/KRAS (ratio of KD value for NRAS to KD value for KRAS) [2] | HRAS/KRAS (ratio of KD value for HRAS to KD value for KRAS) [3] | further results
0.38 |  | CCO[C@@H]1C[C@H]2C(=O)NC3(CCC3)C(=O)N(C)[C@@H](C3CCCC3)C(=O)N(C)[C@H](C(=O)N(C)C)CC(=O)N(C)[C@@H](CC3CCC3)C(=O)N[C@@H]([C@@H](C)CC)C(=O)N(C)CC(=O)N(C)[C@H]3CCCCCN(C3=O)[C@@H](Cc3ccc(C(F)(F)F)cc3)C(=O)N(C)CC(=O)N[C@@H](CCc3cc(F)c(C(F)(F)F)c(F)c3)C(=O)N2C1 [PP0668] | B (a compound having 3 or more and less than 10 is denoted as B) | B (a compound having 3 or more and less than 10 is denoted as B) |  |  | 
0.05 |  | CCCN1C(=O)[C@@H]2CCN2C(=O)[C@H](C)N(C)C(=O)[C@H]([C@@H](C)CC)NC(=O)[C@H](CC(C)C)N(C)C(=O)C[C@@H](C(=O)N2CCOCC2)N(C)C(=O)[C@H](C2CCCC2)N(C)C(=O)C2(CCCC2)NC(=O)[C@@H]2C[C@@H](O)CN2C(=O)[C@H](CCc2ccc(C(F)(F)F)c(Cl)c2)NC(=O)CN(C)C(=O)[C@@H]1Cc1ccc(C(F)(F)F)cc1 [PP0239] |  |  | C (A compound having a KD ratio of 0.1 or more and less than 3 is denoted as C) | B (a compound having 3 or more and less than 10 is denoted as B) | 
 | 0.046 | CCO[C@@H]1C[C@H]2C(=O)NC3(CCC3)C(=O)N(C)[C@@H](C3CCCC3)C(=O)N(C)[C@H](C(=O)N(C)C)CC(=O)N(C)[C@@H](CC)C(=O)N[C@@H]([C@@H](C)CC)C(=O)N(C)CC(=O)N(C)[C@H]3CCCCN(C3=O)[C@@H](Cc3ccc(C(F)(F)F)cc3)C(=O)N(C)CC(=O)N[C@@H](CCc3cc(Cl)c(Cl)c(Cl)c3)C(=O)N2C1 [PP0988] |  |  | C (A compound having a KD ratio of 0.1 or more and less than 3 is denoted as C) | B (a compound having 3 or more and less than 10 is denoted as B) | 
0.1 |  | CC(C)C[C@H]1C(=O)N[C@@H](C2CCC2)C(=O)N(C)CC(=O)N(C)[C@H]2CCCCN(C2=O)[C@@H](Cc2ccc(C(F)(F)F)cc2)C(=O)N(C)CC(=O)N[C@@H](CCc2cc(F)c(C(F)(F)F)c(F)c2)C(=O)N2CCC[C@H]2C(=O)NC2(CCCC2)C(=O)N(C)[C@@H](C2CCCC2)C(=O)N(C)[C@H](C(=O)N2CCOCC2)CC(=O)N1C [PP0596] | B (a compound having 3 or more and less than 10 is denoted as B) | B (a compound having 3 or more and less than 10 is denoted as B) |  |  | 
 | 0.078 | C#CC[C@H]1C(=O)N[C@@H]([C@@H](C)CC)C(=O)N(C)CC(=O)N(C)[C@H]2C/C=C\CCN(C2=O)[C@@H](Cc2ccc(C(F)(F)F)cc2)C(=O)N(C)CC(=O)N[C@@H](CCc2cc(F)c(C(F)(F)F)c(F)c2)C(=O)N2C[C@H](OCC)C[C@H]2C(=O)NC2(CC(C)(C)C2)C(=O)N(C)[C@@H](C2CCCC2)C(=O)N(C)[C@H](C(=O)N(C)CC)CC(=O)N1C [PP2073] |  |  | A (a compound having 10 or more and less than 20 is denoted as A) | A (a compound having 10 or more and less than 20 is denoted as A) | 
3.1 |  | CC[C@H](C)[C@@H]1NC(=O)[C@H](CC(C)C)N(C)C(=O)C[C@@H](C(=O)N2CCOCC2)N(C)C(=O)[C@H](C2CCCC2)N(C)C(=O)C2(CCCC2)NC(=O)[C@@H]2[C@@H](O)CCN2C(=O)[C@H](CCc2cc(F)c(C(F)(F)F)c(F)c2)NC(=O)CN(C)C(=O)[C@H](Cc2ccc(C(F)(F)F)cc2)N2CCCCC[C@@H](C2=O)N(C)C(=O)CN(C)C1=O [PP0662] | B (a compound having 3 or more and less than 10 is denoted as B) | B (a compound having 3 or more and less than 10 is denoted as B) |  |  | 
 | 1.2 | CCO[C@@H]1C[C@H]2C(=O)NC3(CC(C)(C)C3)C(=O)N(C)[C@@H](C3CCCC3)C(=O)N(C)[C@H](C(=O)N3CCOCC3)CC(=O)N(C)[C@@H](COC)C(=O)N[C@@H]([C@@H](C)CC)C(=O)N(C)CC(=O)N(C)[C@H]3CCCCCN(C3=O)[C@@H](Cc3ccc(C(F)(F)F)cc3)C(=O)N(C)CC(=O)N[C@@H](CCc3cc(F)c(C(F)(F)F)c(F)c3)C(=O)N2C1 [PP0844] |  |  | B (a compound having 3 or more and less than 10 is denoted as B) | B (a compound having 3 or more and less than 10 is denoted as B) | 
11 |  | CC[C@H](C)[C@@H]1NC(=O)[C@H](CC(C)C)N(C)C(=O)C[C@@H](C(=O)N2CCOCC2)N(CC)C(=O)[C@H](C2CCCC2)N(C)C(=O)C2(CCCC2)NC(=O)[C@@H]2CCCN2C(=O)[C@H](CCc2cc(F)c(C(F)(F)F)c(F)c2)NC(=O)CN(C)C(=O)[C@H](Cc2ccc(C(F)(F)F)cc2)N2CCCCC[C@@H](C2=O)N(C)C(=O)CN(C)C1=O [PP0477] | A (a compound having 10 or more and less than 20 is denoted as A) | A (a compound having 10 or more and less than 20 is denoted as A) |  |  | 
 |  | CCCOC[C@H]1C(=O)N[C@@H]([C@@H](C)CC)C(=O)N(C)CC(=O)N(C)[C@H]2C/C=C\CCN(C2=O)[C@@H](Cc2ccc(C)cc2)C(=O)N(C)CC(=O)N[C@@H](CCc2cc(F)c(C(F)(F)F)c(F)c2)C(=O)N2C[C@H](OCC)C[C@H]2C(=O)NC2(CCCC2)C(=O)N(C)[C@@H](C2CCCC2)C(=O)N(C)[C@H](C(=O)N2CCCC2)CC(=O)N1C [PP1401] |  |  |  |  | Kd ([1]; SPR, Single Cycle Kinetics, 1:1 binding model): 0.26 nM; NRAS/KRAS (ratio of KD value for NRAS to KD value for KRAS) ([2]; KD ratio class): A (a compound having 10 or more and less than 20 is denoted as A); HRAS/KRAS (ratio of KD value for HRAS to KD value for KRAS) ([3]; KD ratio class): A (a compound having 10 or more and less than 20 is denoted as A)
 | 0.053 | CC[C@H](C)[C@@H]1NC(=O)[C@H](CC(C)C)N(C)C(=O)C[C@@H](C(=O)N2CCOCC2)N(C)C(=O)[C@H](C2CCCC2)N(C)C(=O)C2(CCC2)NC(=O)[C@@H]2C[C@@H](O)CN2C(=O)[C@H](CCc2cc(F)c(C(F)(F)F)c(F)c2)NC(=O)CN(C)C(=O)[C@H](Cc2ccc(C(F)(F)F)cc2)N2CCCC[C@@H](C2=O)N(C)C(=O)CN(C)C1=O [PP0868] |  |  | C (A compound having a KD ratio of 0.1 or more and less than 3 is denoted as C) | B (a compound having 3 or more and less than 10 is denoted as B) | 
 | 0.056 | CCC[C@H]1C(=O)N[C@@H]([C@@H](C)CC)C(=O)N(C)CC(=O)N(C)[C@H]2C/C=C\CCN(C2=O)[C@@H](Cc2ccc(C(F)(F)F)cc2)C(=O)N(C)CC(=O)N[C@@H](CCc2cc(F)c(C(F)(F)F)c(F)c2)C(=O)N2C[C@H](OCC)C[C@H]2C(=O)NC2(CCC2)C(=O)N(C)[C@@H](C2CCCC2)C(=O)N(C)[C@H](C(=O)N(C)C)CC(=O)N1C [PP1110, (2S,8S,12R,14S,20S,23S,27S,30S,36S,38Z)-20-cyclopentyl-8-[2-[3,5-difluoro-4-(trifluoromethyl)phenyl]ethyl]-12-ethoxy-N,N,4,19,22,26,32,35-octamethyl-30-[(1S)-1-methylpropyl]-3,6,9,15,18,21,25,28,31,34,42-undecaoxo-27-propyl-2-[[4-(trifluoromethyl)phenyl]methyl]spiro[1,4,7,10,16,19,22,26,29,32,35-undecazatricyclo[34.5.1.0^10,14]dotetracont-38-ene-17,1′-cyclobutane]-23-carboxamide] |  |  | A (a compound having 10 or more and less than 20 is denoted as A) | B (a compound having 3 or more and less than 10 is denoted as B) | 
 | 0.36 | CC[C@H](C)[C@@H]1NC(=O)[C@H](CC(C)C)N(C)C(=O)C[C@@H](C(=O)N2CCOCC2)N(C)C(=O)[C@H](C2CCCC2)N(C)C(=O)C2(CCC2)NC(=O)[C@@H]2[C@@H](OCC3CCCC3)CCN2C(=O)[C@H](CCc2cc(F)c(C(F)(F)F)c(F)c2)NC(=O)CN(C)C(=O)[C@H](Cc2ccc(C(F)(F)F)cc2)N2CCCC[C@@H](C2=O)N(C)C(=O)CN(C)C1=O [PP1073] |  |  | B (a compound having 3 or more and less than 10 is denoted as B) | B (a compound having 3 or more and less than 10 is denoted as B) | 
1.1 |  | CCCN1C(=O)CN(C)C(=O)CN(C)C(=O)[C@H](CC)NC(=O)[C@H](CC(C)C)N(C)C(=O)C[C@@H](C(=O)N2CCOCC2)N(C)C(=O)[C@H](C2CCCC2)N(C)C(=O)C2(CCCC2)NC(=O)[C@@H]2CCCN2C(=O)[C@H](CCc2ccc(C(F)(F)F)c(Cl)c2)NC(=O)CN(C)C(=O)[C@@H]1Cc1ccc(C(F)(F)F)cc1 [PP0248] ([NMeL][Abu][Sar][Sar][NPrPhe(4-CF3)][Sar][hPhe(3-Cl-4-CF3)]P[Ac5c][NMeGly(cPent)][NMeD]-Morpholide; lactam N-11) |  |  | B (a compound having 3 or more and less than 10 is denoted as B) | B (a compound having 3 or more and less than 10 is denoted as B) | 
